We go through 17 compounds from patent publication USRE47689E1, “Compounds for treating spinal muscular atrophy” (PTC Therapeutics, Inc., priority 2011, dated 2019).

Each structure is given as a SMILES string. Where two headings read alike, the source gives them in different places. Where only a bound is given, the exact number is not on record here.

Series [1] deals with SMN2 minigene (full length SMN2 minigene mRNA containing SMN2 exon 7). Put plainly: SMN2 minigene mRNA splicing RT-qPCR assay in cultured cells. It counts as cell-based, human. The note with it: Homo sapiens, HEK293-H, read-out: EC1.5x for production of full length SMN2 mRNA. The method in brief: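 Lysates → one-step RT-qPCR, minigene-specific primers (0.4 μM final) + GAPDH multiplex, 40 cycles. FL/GAPDH vs DMSO; EC1.5x, star-binned.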
For orientation: Quantitative PCR measures a nucleic acid by following its amplification.

Series [2] has as its system Smn protein. Kind of series: Smn protein assay in cultured cells (SMN HTRF). The note with it: 48 hours; for EC1.5x (concentration giving 1.5-fold Smn protein increase): SMA Type 1 patient fibroblast cells (GM03813), 7-point concentration curve, SMN HTRF, concentration producing 1.5 times Smn protein vs DMSO vehicle control, read-out: EC1.5x for Smn protein expression; for maximum fold (Fold) increase of Smn protein: SMA patient fibroblast cells, 7-point concentration data, fold increase relative to vehicle control (SMN HTRF). The series is classed as cell-based, human. The method in brief:
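Smn in SMA fibroblast lysates, measured by anti-SMN HTRF after 48 h compound exposure; EC1.5x from fold change over vehicle.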
(In general: In TR-FRET formats the signal depends on donor and acceptor labels being close together.)

Setting [3] is: HEK293H cells stably transfected with SMN2-A minigene, 24 hours, 7-point concentration curve, 1.5-fold relative to vehicle-treated cells.

On to `Cc1cn2cc(-c3cc4ccc(N5CCN(C6CCC6)CC5)cc4oc3=O)nc2c(C)n1` [Compound 822, 7-(4-cyclobutylpiperazin-1-yl)-3-(6,8-dimethylimidazo[1,2-a]pyrazin-2-yl)-2H-chromen-2-one], for which the melting point lay within 260 to 262 °C. Also, in series [1] (setting [3]), the EC (1.5-fold) was < 0.1 µM. In series [2], the EC1.5x (concentration giving 1.5-fold Smn protein increase) is < 300 nM; the “maximum fold (Fold) increase of Smn protein” value (“maximum fold (Fold) increase” below) was “**** (fold increase between >1.5 and ≤1.65)”.
In turn, `Cc1cn2cc(-c3cc4ccc(C5CCN(CCCF)CC5)cc4oc3=O)nc2cn1` [Compound 917, 7-[1-(3-fluoropropyl)piperidin-4-yl]-3-(6-methylimidazo[1,2-a]pyrazin-2-yl)-2H-chromen-2-one] registered a melting point of 224 to 234 °C. Besides, the EC (1.5-fold) in series [1] (setting [3]) is < 0.1 µM. Further, in series [2], the EC1.5x (concentration giving 1.5-fold Smn protein increase) was < 300 nM and the “maximum fold (Fold) increase” value is listed as “***** (fold increase >1.65)”.
With `Cc1ccc2nc(-c3cc4ccc(CN5CCC(O)CC5)cc4oc3=O)cn2c1` [Compound 252, 7-[(4-hydroxypiperidin-1-yl)methyl]-3-(6-methylimidazo[1,2-a]pyridin-2-yl)-2H-chromen-2-one], the melting point lay in the range of 261 to 264 °C. In addition, the EC (1.5-fold) in series [1] (setting [3]) was in the range of 3 to 30 µM. Also, the “maximum fold (Fold) increase” value in series [2] is “** (fold increase between >1.2 and ≤1.35)”.
Turning to `Cc1nccn2cc(-c3cc4ccc(N5CCCNCC5)cc4oc3=O)nc12` [Compound 572, 7-(1,4-diazepan-1-yl)-3-(8-methylimidazo[1,2-a]pyrazin-2-yl)-2H-chromen-2-one], the melting point lay within 212 to 216 °C. The EC (1.5-fold) in series [1] (setting [3]) fell in the range of 0.1 to 0.3 µM. Moreover, in series [2], the EC1.5x (concentration giving 1.5-fold Smn protein increase) fell in the range of 300 to 1000 nM; the “maximum fold (Fold) increase” value is “**** (fold increase between >1.5 and ≤1.65)”.
As for `C[C@@H]1CN(c2ccc3cc(-c4cn5ccncc5n4)c(=O)oc3c2)C[C@H](C)N1` [Compound 417, 7-[(3R,5S)-3,5-dimethylpiperazin-1-yl]-3-(imidazo[1,2-a]pyrazin-2-yl)-2H-chromen-2-one], the melting point was in the range of 248 to 250 °C. The EC (1.5-fold) in series [1] (setting [3]) lay within 0.1 to 0.3 µM. In addition, in series [2], the EC1.5x (concentration giving 1.5-fold Smn protein increase) is < 300 nM; the “maximum fold (Fold) increase” value is “*** (fold increase between >1.35 and ≤1.5)”.
In the case of `Cc1nccn2cc(-c3cc4ccc(N5CCN6CCC[C@@H]6C5)cc4oc3=O)cc12` [Compound 636, 7-[(8aR)-hexahydropyrrolo[1,2-a]pyrazin-2(1H)-yl]-3-(1-methylpyrrolo[1,2-a]pyrazin-7-yl)-2H-chromen-2-one], the melting point fell in the range of 170 to 173 °C. Besides, the EC (1.5-fold) in series [1] (setting [3]) was < 0.1 µM. For the same compound, the “maximum fold (Fold) increase” value in series [2] was “** (fold increase between >1.2 and ≤1.35)”.
As to `CC(C)Oc1cccc(-c2cc3ccc(N4CCNCC4)cc3oc2=O)n1` [Cpd 385, 7-(piperazin-1-yl)-3-[6-(propan-2-yloxy)pyridin-2-yl]-2H-chromen-2-one], the melting point was in the range of 177 to 180 °C. The EC (1.5-fold) in series [1] (setting [3]) lay within 1 to 3 µM. Moreover, the “maximum fold (Fold) increase” value in series [2] was “* (maximum fold increase of ≤1.2)”.
With `Cc1cn2cc(-c3cc4ccc(N5CC[C@H](N(C)C)C5)cc4oc3=O)cc2cn1` [Compound 666, 7-[(3S)-3-(dimethylamino)pyrrolidin-1-yl]-3-(3-methylpyrrolo[1,2-a]pyrazin-7-yl)-2H-chromen-2-one], the melting point was in the range of 200 to 204 °C. The EC (1.5-fold) in series [1] (setting [3]) was < 0.1 µM. Moreover, in series [2], the EC1.5x (concentration giving 1.5-fold Smn protein increase) is < 300 nM; the “maximum fold (Fold) increase” value was “**** (fold increase between >1.5 and ≤1.65)”.
Take `O=c1oc2cc(CN3CCC(O)C3)ccc2cc1-c1nc2c(Cl)cccc2s1` (stereo not drawn) [Compound 272, 3-(4-chloro-1,3-benzothiazol-2-yl)-7-[(3-hydroxypyrrolidin-1-yl)methyl]-2H-chromen-2-one]: the melting point lay in the range of 188 to 192 °C. Also, the EC (1.5-fold) in series [1] (setting [3]) lay within 1 to 3 µM. The “maximum fold (Fold) increase” value in series [2] is “** (fold increase between >1.2 and ≤1.35)”.
Compound `O=c1oc2cc(N3CCNCC3)ccc2cc1-c1cccc(F)n1` [Compound 380, 3-(6-fluoropyridin-2-yl)-7-(piperazin-1-yl)-2H-chromen-2-one] came in with a melting point of 196 to 198 °C. For the same compound, the EC (1.5-fold) in series [1] (24 h) was 0.3 to 1 µM. Further, the “maximum fold (Fold) increase” value in series [2] is “** (fold increase between >1.2 and ≤1.35)”.
Consider `O=c1oc2cc(N3CCNCC3)ccc2cc1-c1ccc2[nH]ncc2c1` [Compound 91, 3-(1H-indazol-5-yl)-7-(piperazin-1-yl)-2H-chromen-2-one], for which the melting point lay within 250 to 252 °C. Also, the EC (1.5-fold) in series [1] (setting [3]) was 0.3 to 1 µM. For the same compound, the “maximum fold (Fold) increase” value in series [2] is “** (fold increase between >1.2 and ≤1.35)”.
Take `Cc1cn2cc(-c3cc4ccc(N(C)[C@@H]5CCN(C)C5)cc4oc3=O)nc2c(C)n1` [Compound 707, 3-(6,8-dimethylimidazo[1,2-a]pyrazin-2-yl)-7-{methyl[(3R)-1-methylpyrrolidin-3-yl]amino}-2H-chromen-2-one]: the melting point lay within 179 to 186 °C. For the same compound, in series [1] (setting [3]), the EC (1.5-fold) is < 0.1 µM. In series [2], the EC1.5x (concentration giving 1.5-fold Smn protein increase) was in the range of 300 to 1000 nM; the “maximum fold (Fold) increase” value was “**** (fold increase between >1.5 and ≤1.65)”.
On to `CCCN1CCN(c2ccc3cc(-c4cn5cccnc5n4)c(=O)oc3c2)CC1` [Compound 109, 3-(imidazo[1,2-a]pyrimidin-2-yl)-7-(4-propylpiperazin-1-yl)-2H-chromen-2-one], for which the melting point lay in the range of 291 to 293 °C. Further, in series [1] (setting [3]), the EC (1.5-fold) lay in the range of 1 to 3 µM. Also, in series [2], the EC1.5x (concentration giving 1.5-fold Smn protein increase) was in the range of 3000 to 10000 nM; the “maximum fold (Fold) increase” value is “*** (fold increase between >1.35 and ≤1.5)”.
Take `CCc1cc(-c2cc3ccc(CCCN(C)C)cc3oc2=O)cn2cc(C)nc12` [Compound 910, 7-[3-(dimethylamino)propyl]-3-(8-ethyl-2-methylimidazo[1,2-a]pyridin-6-yl)-2H-chromen-2-one]: the melting point lay in the range of 123 to 126 °C. Moreover, in series [1] (setting [3]), the EC (1.5-fold) was < 0.1 µM. For the same compound, in series [2], the EC1.5x (concentration giving 1.5-fold Smn protein increase) is < 300 nM and the “maximum fold (Fold) increase” value is reported as “***** (fold increase >1.65)”.
`O=c1oc2cc(N3CCNCC3)cc(F)c2cc1-c1cn2ccsc2n1` [Compound 311, 5-fluoro-3-(imidazo[2,1-b][1,3]thiazol-6-yl)-7-(piperazin-1-yl)-2H-chromen-2-one] yielded a melting point of 278 to 283 °C. Further, the EC (1.5-fold) in series [1] (setting [3]) is < 0.1 µM. Further, in series [2], the EC1.5x (concentration giving 1.5-fold Smn protein increase) lay in the range of 1000 to 3000 nM; the “maximum fold (Fold) increase” value is “*** (fold increase between >1.35 and ≤1.5)”.
`Cc1cn2cc(-c3cc4ccc(Cn5ccnc5)cc4oc3=O)nc2c(C)n1` [Compound 851, 3-(6,8-dimethylimidazo[1,2-a]pyrazin-2-yl)-7-(1H-imidazol-1-ylmethyl)-2H-chromen-2-one] yielded a melting point of 286 to 292 °C. Moreover, in series [1] (setting [3]), the EC (1.5-fold) fell in the range of 1 to 3 µM. Moreover, the “maximum fold (Fold) increase” value in series [2] was “*** (fold increase between >1.35 and ≤1.5)”.
`COc1ccc(-c2cc3ccc(N4CCNCC4)cc3oc2=O)cc1` [Compound 447, 3-(4-methoxyphenyl)-7-(piperazin-1-yl)-2H-chromen-2-one] registered a melting point of 211 to 213 °C. In addition, the EC (1.5-fold) in series [1] (setting [3]) fell in the range of 1 to 3 µM. In series [2], the “maximum fold (Fold) increase” value is “* (maximum fold increase of ≤1.2)”.

One may read the melting point as the temperature, or range, at which the solid turns liquid.
